According to patent US10538508B2, “Substituted amino triazoles useful as human chitinase inhibitors” (OncoArendi Therapeutics S.A., priority 2015, dated 2020):

molecular target: recombinant human AMCase (Homo sapiens (Human), UniProt Q9BZP6); assay: Human AMCase Activity Assay; format: biochemical; conditions: citrate buffer pH 5.2, 37° C., 60 minutes, read-out: Activity on hAMCase, IC50
Sequence (Q9BZP6 22-476): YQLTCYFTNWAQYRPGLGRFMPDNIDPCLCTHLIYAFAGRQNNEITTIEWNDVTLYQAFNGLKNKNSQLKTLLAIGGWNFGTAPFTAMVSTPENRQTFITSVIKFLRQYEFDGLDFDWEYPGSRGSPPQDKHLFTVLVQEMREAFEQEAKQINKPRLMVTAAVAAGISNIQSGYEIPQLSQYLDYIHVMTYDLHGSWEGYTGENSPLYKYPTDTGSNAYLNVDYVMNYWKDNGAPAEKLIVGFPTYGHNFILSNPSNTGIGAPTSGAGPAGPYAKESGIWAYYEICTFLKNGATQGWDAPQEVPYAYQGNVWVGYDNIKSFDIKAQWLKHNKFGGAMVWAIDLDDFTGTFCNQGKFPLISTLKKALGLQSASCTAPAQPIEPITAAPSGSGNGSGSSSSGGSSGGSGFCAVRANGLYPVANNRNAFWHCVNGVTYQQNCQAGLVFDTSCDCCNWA

IC50 | SMILES
< 0.1 µM | CN1C[C@H](Cc2ccc(Cl)cc2)N(C2CCN(c3nnc(N)[nH]3)CC2)C[C@@H]1Cc1ccc(Cl)cc1 [Example 31, 5-(4-((2S,5S)-2,5-bis(4-chlorobenzyl)-4-methylpiperazin-1-yl)piperidin-1-yl)-4H-1,2,4-triazol-3-amine]
< 0.1 µM | CN1C[C@H](Cc2ccc(Cl)cc2)N(C2CCN(c3nnc(N)[nH]3)CC2)C[C@@H]1CC1CCCCC1 [Example 32, 5-(4-((2 S, 5S)-2-(4-chlorobenzyl)-5-(cyclohexylmethyl)-4-methylpiperazin-1-yl)piperidin-1-yl)-4H-1,2,4-triazol-3-amine]
< 0.1 µM | CC(C)C[C@H]1CN(C2CCN(c3nnc(N)[nH]3)CC2)[C@@H](Cc2ccc(Cl)cc2)CN1C [Example 33, 5-(4-((2S,5S)-2-(4-chlorobenzyl)-5-isobutyl-4-methylpiperazin-1-yl)piperidin-1-yl)-4H-1,2,4-triazol-3-amine]

molecular target: recombinant human CHIT1 (Homo sapiens (Human), UniProt Q13231); assay: Human CHIT1 Activity Assay; format: biochemical; conditions: recombinant human CHIT1, citrate buffer pH 5.2, 37° C., 60 minutes; read-out: Activity on hCHIT1, IC50
Sequence (Q13231 22-466): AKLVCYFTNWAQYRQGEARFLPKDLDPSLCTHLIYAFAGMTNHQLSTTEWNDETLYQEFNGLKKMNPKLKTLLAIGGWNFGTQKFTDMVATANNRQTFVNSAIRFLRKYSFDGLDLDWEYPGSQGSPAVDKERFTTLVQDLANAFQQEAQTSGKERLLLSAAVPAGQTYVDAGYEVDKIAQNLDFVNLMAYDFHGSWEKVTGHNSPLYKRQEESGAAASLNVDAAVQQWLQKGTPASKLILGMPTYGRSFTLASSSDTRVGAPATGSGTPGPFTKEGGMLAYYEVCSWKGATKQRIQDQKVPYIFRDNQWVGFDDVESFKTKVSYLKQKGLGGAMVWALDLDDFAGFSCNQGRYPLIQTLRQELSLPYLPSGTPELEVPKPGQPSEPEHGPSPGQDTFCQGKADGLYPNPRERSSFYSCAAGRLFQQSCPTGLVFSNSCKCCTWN

SMILES | IC50
COC(C)(C)[C@H]1CN(C2CCN(c3nnc(N)[nH]3)CC2)[C@@H](Cc2ccc(Cl)cc2)CO1 [Example 14, 5-(4-((2R,5S)-5-(4-chlorobenzyl)-2-(2-methoxypropan-2-yl)morpholino)piperidin-1-yl)-4H-1,2,4-triazol-3-amine] | < 0.1 µM
C[C@H]1CN(C2CCN(c3nnc(N)[nH]3)CC2)[C@@H](Cc2ccc(Cl)cc2)CN1S(C)(=O)=O [Example 37, 5-(4-((2S,5S)-2-(4-chlorobenzyl)-5-methyl-4-(methylsulfonyl)piperazin-1-yl)piperidin-1-yl)-4H-1,2,4-triazol-3-amine] | 10 to 100 µM

The remaining lines, values ahead:

IC50 | SMILES
10 to 100 µM | COC(=O)N1C[C@H](Cc2ccc(Cl)cc2)N(C2CCN(c3nnc(N)[nH]3)CC2)C[C@@H]1C [Example 39, methyl (2S,5S)-4-(1-(5-amino-4H-1,2,4-triazol-3-yl)piperidin-4-yl)-5-(4-chlorobenzyl)-2-methylpiperazine-1-carboxylate]
0.1 to 1 µM | COC(=O)CN1C[C@H](Cc2ccc(Cl)cc2)N(C2CCN(c3nnc(N)[nH]3)CC2)C[C@@H]1C [Example 40, methyl 2-((2S,5S)-4-(1-(5-amino-4H-1,2,4-triazol-3-yl)piperidin-4-yl)-5-(4-chlorobenzyl)-2-methylpiperazin-1-yl)acetate]
10 to 100 µM | C[C@H]1CN(C2CCN(c3nnc(N)[nH]3)CC2)[C@@H](Cc2ccc(Cl)cc2)C(C)(C)O1 [Example 53, 5-(4-((3S,6S)-3-(4-chlorobenzyl)-2,2,6-trimethylmorpholino)piperidin-1-yl)-4H-1,2,4-triazol-3-amine]
